Each compound was assayed on HIV-1/LAI strain selected with Comp 1 (100 nM, 195 days), protease S37N R41S K70E (assay: In vitro antiviral activity in acutely infected MT4 cells, selected strain). Settings: Table 2, strain S37N R41S K70E (Comp 1 100 nM, 195 days).
Format: cell-based
Method: (§1) Determination of the antiviral activity of a compound was done as described in Pauwels R. et al. (J Virol Methods 1988; 20(4):309-21). Various concentrations of the test compounds were brought into each well of a flat-bottom microtiter plate. Subsequently, HIV and MT4 cells were added to a final concentration of 200-250 50% cell culture infectious doses (CCID50)/well and 30,000 cells/well, respectively. After 5 days of incubation (37° C., 5% CO2), the cytopathic effect of the replicating virus was determined by the tetrazolium colorimetric MTT method. The dose protecting 50% of the cells from virus cytopathic effect was defined as the EC50, while the dose achieving 90% protection was defined as the EC90.
(§2) MT4-LTR-EGFP cells were infected at a multiplicity of infection (MOI) of 0.01 to 0.001 CCID50/cell in the presence of inhibitor. The starting concentration of the inhibitor was two to tee times the EC50, a suboptimal concentration. The cultures were sub-cultivated and scored microscopically on virus-induced fluorescence and cytopathicity every 3-4 days. The cultures were sub-cultivated in the presence of the same compound concentration until signs of virus replication were observed. The escaping virus was further cultivated in the presence of the same inhibitor concentration in order to enrich the population in resistant variants. If full virus breakthrough was observed the supernatant was collected and stored (new virus strain). Afterwards, the same virus was challenged with a higher compound concentration in order to select variants able to grow in the presence of as high as possible inhibitor concentrations. From the new viruses, a virus stock was grown in the absence of inhibitor.
(§3) In vitro drug selection experiments starting from wild-type HIV-1 under pressure of compound 1, compound 2, and Nelfinavir (NFV) have been performed. Tables 1, 2, 3, 4, and 5 show the genotypic and phenotypic characterization of the selected strains.

Q: For `CC(C)(C)NC(=O)[C@@H]1C[C@@H]2CCCC[C@@H]2CN1C[C@@H](O)[C@H](Cc1ccccc1)NC(=O)[C@H](CC(N)=O)NC(=O)c1ccc2ccccc2n1` [Saquinavir], which “median FC (fold change in EC50 as compared to wild type)” value is on record?
A: The value was 0.2.

Each compound was assayed on HIV-1/LAI strain selected with Comp 1 (200 nM, 328 days), protease S37N R41S K70E in the same assay as above. Settings: Human immunodeficiency virus 1, Table 2, strain S37N R41S K70E (Comp 1 200 nM, 328 days), read-out: median EC50.
Format: cell-based
Method: as §1, §2, §3

Q: `CC(C)(C)NC(=O)[C@@H]1C[C@@H]2CCCC[C@@H]2CN1C[C@@H](O)[C@H](Cc1ccccc1)NC(=O)[C@H](CC(N)=O)NC(=O)c1ccc2ccccc2n1` [Saquinavir] was tested. Which EC50 did it give?
A: The EC50 was 4 nM.

Same assay, conditions: Table 2, strain S37N R41S K70E (Comp 1 200 nM, 328 days)

Q: For `CC(C)(C)NC(=O)[C@@H]1C[C@@H]2CCCC[C@@H]2CN1C[C@@H](O)[C@H](Cc1ccccc1)NC(=O)[C@H](CC(N)=O)NC(=O)c1ccc2ccccc2n1` [Saquinavir], which “median FC (fold change in EC50 as compared to wild type)” value is on record?
A: Its value is 1.

Each compound was assayed on HIV-1/LAI strain selected with Comp 1 (30 nM, 70 days), protease K70E in the same assay as above. Settings: Human immunodeficiency virus 1, Table 2, strain K70E (Comp 1 30 nM, 70 days), read-out: median EC50.
Format: cell-based
Method: as §1, §2, §3

Q: `CC(C)(C)NC(=O)[C@@H]1C[C@@H]2CCCC[C@@H]2CN1C[C@@H](O)[C@H](Cc1ccccc1)NC(=O)[C@H](CC(N)=O)NC(=O)c1ccc2ccccc2n1` [Saquinavir] was tested. Which EC50 did it give?
A: Its EC50 is 6 nM.

Same assay, conditions: Table 2, strain K70E (Comp 1 30 nM, 70 days)

Q: `CC(C)(C)NC(=O)[C@@H]1C[C@@H]2CCCC[C@@H]2CN1C[C@@H](O)[C@H](Cc1ccccc1)NC(=O)[C@H](CC(N)=O)NC(=O)c1ccc2ccccc2n1` [Saquinavir] was tested. Which “median FC (fold change in EC50 as compared to wild type)” value did it give?
A: The value was 1.

What follows are compounds tested on HIV-1/LAI strain selected with Compound 1 (100 nM, 188 days), protease R41T K70E in the same assay as above. Settings: Human immunodeficiency virus 1, Table 1, strain R41T K70E (Compound 1 100 nM, 188 days), read-out: median EC50.
Format: cell-based
Method: as §1, §2, §3

Q: For `CC(C)(C)NC(=O)[C@@H]1C[C@@H]2CCCC[C@@H]2CN1C[C@@H](O)[C@H](Cc1ccccc1)NC(=O)[C@H](CC(N)=O)NC(=O)c1ccc2ccccc2n1` [Saquinavir], which EC50 is on record?
A: Its EC50 is 150 nM.

Same assay, conditions: Table 1, strain R41T K70E (Compound 1 100 nM, 188 days)

Q: For `CC(C)(C)NC(=O)[C@@H]1C[C@@H]2CCCC[C@@H]2CN1C[C@@H](O)[C@H](Cc1ccccc1)NC(=O)[C@H](CC(N)=O)NC(=O)c1ccc2ccccc2n1` [Saquinavir], which “median FC (fold change in EC50 as compared to wild type)” value is on record?
A: Its value is 20.

These compounds were tested on HIV-1/LAI strain selected with Compound 1 (30 nM, 45 days), protease R41T in the same assay as above. Settings: Human immunodeficiency virus 1, Table 1, strain R41T (Compound 1 30 nM, 45 days), read-out: median EC50.
Format: cell-based
Method: as §1, §2, §3

Q: For `CC(C)(C)NC(=O)[C@@H]1C[C@@H]2CCCC[C@@H]2CN1C[C@@H](O)[C@H](Cc1ccccc1)NC(=O)[C@H](CC(N)=O)NC(=O)c1ccc2ccccc2n1` [Saquinavir], which EC50 is on record?
A: Its EC50 is 30 nM.

Same assay, conditions: Table 1, strain R41T (Compound 1 30 nM, 45 days)

Q: Which “median FC (fold change in EC50 as compared to wild type)” value does the source give for `CC(C)(C)NC(=O)[C@@H]1C[C@@H]2CCCC[C@@H]2CN1C[C@@H](O)[C@H](Cc1ccccc1)NC(=O)[C@H](CC(N)=O)NC(=O)c1ccc2ccccc2n1` [Saquinavir] here?
A: The value was 4.

Each compound was assayed on HIV-1/LAI strain selected with NFV (1000 nM, 35 days), protease D30N M46I in the same assay as above. Settings: Human immunodeficiency virus 1, Table 5, strain D30N M46I (NFV 1000 nM, 35 days), read-out: median EC50.
Format: cell-based
Method: as §1, §2, §3

Q: For `CC(C)(C)NC(=O)[C@@H]1C[C@@H]2CCCC[C@@H]2CN1C[C@@H](O)[C@H](Cc1ccccc1)NC(=O)[C@H](CC(N)=O)NC(=O)c1ccc2ccccc2n1` [Saquinavir], which EC50 is on record?
A: The EC50 was 1.8 nM.

Same assay, conditions: Table 5, strain D30N M46I (NFV 1000 nM, 35 days)

Q: Which “median FC (fold change in EC50 as compared to wild type)” value does the source give for `CC(C)(C)NC(=O)[C@@H]1C[C@@H]2CCCC[C@@H]2CN1C[C@@H](O)[C@H](Cc1ccccc1)NC(=O)[C@H](CC(N)=O)NC(=O)c1ccc2ccccc2n1` [Saquinavir] here?
A: Its value is 0.

The compounds below were run on HIV-1/LAI strain selected with NFV (9000 nM, 11l days), protease L10F D30N R41R/K K45I/K M46I V77I I84V/I I85V/I N88D in the same assay as above. Settings: Human immunodeficiency virus 1, Table 5, strain L10F D30N R41R/K K45I/K M46I V77I I84V/I I85V/I N88D (NFV 9000 nM, 11l days), read-out: median EC50.
Format: cell-based
Method: as §1, §2, §3

Q: Which EC50 does the source give for `CC(C)(C)NC(=O)[C@@H]1C[C@@H]2CCCC[C@@H]2CN1C[C@@H](O)[C@H](Cc1ccccc1)NC(=O)[C@H](CC(N)=O)NC(=O)c1ccc2ccccc2n1` [Saquinavir] here?
A: The EC50 was 15 nM.

Same assay, conditions: Table 5, strain L10F D30N R41R/K K45I/K M46I V77I I84V/I I85V/I N88D (NFV 9000 nM, 11l days)

Q: With `CC(C)(C)NC(=O)[C@@H]1C[C@@H]2CCCC[C@@H]2CN1C[C@@H](O)[C@H](Cc1ccccc1)NC(=O)[C@H](CC(N)=O)NC(=O)c1ccc2ccccc2n1` [Saquinavir] as the compound, how does the “median FC (fold change in EC50 as compared to wild type)” value read?
A: The value was 3.

What follows are compounds tested on HIV-1/LAI strain selected with NFV (9000 nM, 140 days), protease L10F D30N R41R/K K45I/K M46I V77I I84V N88D in the same assay as above. Settings: Human immunodeficiency virus 1, Table 5, strain L10F D30N R41R/K K45I/K M46I V77I I84V N88D (NFV 9000 nM, 140 days), read-out: median EC50.
Format: cell-based
Method: as §1, §2, §3

Q: For `CC(C)(C)NC(=O)[C@@H]1C[C@@H]2CCCC[C@@H]2CN1C[C@@H](O)[C@H](Cc1ccccc1)NC(=O)[C@H](CC(N)=O)NC(=O)c1ccc2ccccc2n1` [Saquinavir], which EC50 is on record?
A: Its EC50 is 34 nM.

Same assay, conditions: Table 5, strain L10F D30N R41R/K K45I/K M46I V77I I84V N88D (NFV 9000 nM, 140 days)

Q: `CC(C)(C)NC(=O)[C@@H]1C[C@@H]2CCCC[C@@H]2CN1C[C@@H](O)[C@H](Cc1ccccc1)NC(=O)[C@H](CC(N)=O)NC(=O)c1ccc2ccccc2n1` [Saquinavir] was tested. Which “median FC (fold change in EC50 as compared to wild type)” value did it give?
A: Its value is 6.

Source: patent US8592161B2, “Mutational profiles in HIV-1 protease correlated with phenotypic drug resistance” (Janssen R&D Ireland, priority 2002, dated 2013)
